Literature values in patent publication US20220378706A1, “PHARMACEUTICAL COMPOSITION COMPRISING PDE9 INHIBITOR” (Eisai R&D Management Co., Ltd., priority 2017, published 2022).

Tested on: CSF cGMP
Conditions: healthy subjects, 40 mg; cited from earlier work

## C[C@@H]1CN(Cc2ncccn2)C[C@H]1c1nc2c(cnn2C2CCOCC2)c(=O)[nH]1 [PF 04447943]
  CSF cGMP elevation: CSF cGMP elevation was demonstrated
